Entries after “also recorded” stand apart in the source; their conditions may differ.
Molecular target: T1, 3 × FLAG-tagged HOIP RBR from HEK293T cells (Homo sapiens, UniProt Q96EP0)
T1 construct: expressed in transfected cells; host or cells: HEK293T, transient, modified pcDNA3.1(+)
Experiment: Immunoprecipitation and on-bead polyubiquitination assay after in-cell labeling
Type: cell-based
Details: 30 μM, E1, UbcH7, ubiquitin
Method: Supplementary Figure S12. A) Uncropped SDS gel and B) and Western Blot (FLAG antibody, 1:1000 dilution) from the immunoprecipitation (IP) of 3×FLAG HOIP RBR from HEK293T cells.
The cells had been incubated with compounds (11a) or (11i) [30 µM], or DMSO for 8 h. C) TIC traces for DMSO control, (11a)- and (11i)-treated HEK293T cell lysate after IP and tryptic digest.
D) Extracted TIC traces for the tryptic peptide […], accounting for possible cysteine labelling (iodoacetamide, (11a) or (11i)) and methionine oxidation.
Immunoprecipitation and Polyubiquitination assay
The protein concentrations of the clarified lysates were normalized with reaction buffer (50 mM Tris-HCl, pH 7.5, 1.5 mM MgCl2, 150 mM NaCl, 1 mM Na3VO4, complete protease inhibitor) to 1.5 mg/mL (final volume 500 µL, and <0.1% IGEPAL-CA630). Magnetic beads containing anti-FLAG M2 antibody (20 µL suspension per vial; Merck) were immobilized using a magnetic stand (GE Healthcare), washed with PBS (2 × 0.5 mL) and reaction buffer (2 × 0.5 mL) and then suspended in the lysate mixtures. Beads without lysate was used as control. The bead […]
A polyubiquitination assay master mix was prepared by mixing E1, UbcH7, ubiquitin, MgCl2, in buffer (50 mM HEPES, 150 mM NaCl, pH 7.5). […] All samples were analyzed by SDS PAGE and Western Blot (Figure 6C and Supplementary Figure S13) as described in sections 4.5 and 4.6. […]

T1 sequence (Q96EP0 697-1072): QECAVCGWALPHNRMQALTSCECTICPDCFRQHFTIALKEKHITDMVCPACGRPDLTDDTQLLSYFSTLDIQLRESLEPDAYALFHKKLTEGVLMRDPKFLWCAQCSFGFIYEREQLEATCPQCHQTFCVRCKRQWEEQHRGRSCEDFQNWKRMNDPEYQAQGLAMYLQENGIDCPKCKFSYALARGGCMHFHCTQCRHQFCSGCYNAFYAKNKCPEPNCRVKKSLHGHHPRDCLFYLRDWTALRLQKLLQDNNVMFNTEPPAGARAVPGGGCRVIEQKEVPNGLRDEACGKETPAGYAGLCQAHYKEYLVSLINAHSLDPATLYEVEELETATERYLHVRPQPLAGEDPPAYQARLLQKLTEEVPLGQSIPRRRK

COC(=O)/C=C/CNC(=O)c1cc2c([nH]c1=O)CCCC2 [Compound 11a]
catalytic activity of HOIP (free polyubiquitin chain formation) after in-cell labeling: significant loss of the catalytic activity; also recorded: significant decrease in free polyubiquitin chain formation

From article PMC6383986, “Fragment-Based Covalent Ligand Screening Enables Rapid Discovery of Inhibitors for the RBR E3 Ubiquitin Ligase HOIP” (Journal of the American Chemical Society, 2019)
